US9120804B2, “8-substituted 2-amino-[1,2,4] triazolo [1, 5-A] pyrazines as Syk tryrosine kinase inhibitors and GCN2 serin kinase inhibitors” (Merck Patent GmbH, priority 2012, dated 2015)
pIC50: −log10 of the molar value.

These compounds were tested against T1, SYK (Homo sapiens, UniProt P43405) (assay: SYK flash plate assay (enzyme assay)).
T1 construct: 2.5 nM SYK, 400 nM Biotin-Aha-Aha-KEDPDYEWPSAKK
Assay type: biochemical
Protocol: The kinase assay is performed either as 384-well Flashplate assay (for e.g. Topcount measurement) or as 384-well Image-Flashplate assay (for LEADseeker measurement).
2.5 nM SYK, 400 nM Biotin-Aha-Aha-KEDPDYEWPSAKK
and 10 μM ATP (spiked with 0.3 μCi 33P-ATP/well) are incubated in a total volume of 50 μl (60 mM Hepes, 10 mM MgCl2, 1.2 mM Dithiothreitol, 0.02% Brij35, 0.1% BSA, pH 7.5) with or without test compound for 1 hours at 30° C. The reaction is stopped with 25 μl 200 mM EDTA. After 30 Min at 30° C. the liquid is removed and each well washed thrice with 100 μl 0.9% sodium chloride solution. Non-specific reaction is determined in presence of […] Staurosporine. Radioactivity is measured with Topcount (when using Flashplates) or with LEADseeker (when using Image-Flashplates) respectively. Results (e.g. IC50-values) are calculated with program tools provided by the IT-department (e.g. Symyx Assay Explorer, Genedata Screener). In Vivo Assays CIA

First: Cn1ncc2ccc(Nc3nc4c(-c5ccccc5-c5ccccc5)nccn4n3)cc21 [C20, (8-Biphenyl-2-yl-[1,2,4]triazolo[1,5-a]pyrazin-2-yl)-(1-methyl-1H-indazol-6-yl)-amine]
Second: Cn1ncc2cc(-c3nccn4nc(Nc5ccc6c(c5)NC(=O)C6(C)C)nc34)ccc21 [E114]
The pIC50 of the first is lower: 5.52 to 6.52 for the first, > 7.00 for the second. The second is the more potent here.

First: CC1(C)C(=O)Nc2cc(Nc3nc4c(N5CC6C(=O)NC(=O)C6C5)nccn4n3)ccc21 (stereo not shown) [E33, 5-[2-(3,3-dimethyl-2-oxo-2,3-dihydro-1H-indol-6-ylamino)-[1,2,4]triazolo[1,5-a]pyrazin-8-yl]-tetrahydro-pyrrolo[3,4-c]pyrrole-1,3-dione]
Second: CC1(C)C(=O)Nc2cc(Nc3nc4c(N5CC[C@]6(CC(=O)NC6=O)C5)nccn4n3)ccc21 [E18, (S)-7-[2-(3,3-dimethyl-2-oxo-2,3-dihydro-1H-indol-6-ylamino)-[1,2,4]triazolo[1,5-a]pyrazin-8-yl]-2,7-diaza-spiro[4.4]nonane-1,3-dione]
The pIC50 of the first is lower: 6.52 to 7.00 for the first, > 7.00 for the second.

First: CC1(C)C(=O)Nc2cc(Nc3nc4c(N5C[C@@H](O)C[C@@H]5c5cccc(F)c5)nccn4n3)ccc21 [E62, 6-{8-[(2R,4S)-2-(3-fluoro-phenyl)-4-hydroxy-pyrrolidin-1-yl]-[1,2,4]triazolo[1,5-a]pyrazin-2-ylamino}-3,3-dimethyl-1,3-dihydro-indol-2-one]
Second: CC1(C)C(=O)Nc2cc(Nc3nc4c(N5C[C@H](O)C[C@H]5c5ccccc5)nccn4n3)ccc21 [E24, 6-[8-((2S,4R)-4-hydroxy-2-phenyl-pyrrolidin-1-yl)-[1,2,4]triazolo[1,5-a]pyrazin-2-ylamino]-3,3-dimethyl-1,3-dihydro-indol-2-one]
The pIC50 of the first is higher: 5.52 to 6.52 for the first, 4.30 to 5.52 for the second. The first is the more potent here.

`Cn1cc(-c2nccn3nc(Nc4ccc5c(c4)NCCC5(C)C)nc23)cn1` [E21, (4,4-dimethyl-1,2,3,4-tetrahydro-quinolin-7-yl)-[8-(1-methyl-1H-pyrazol-4-yl)-[1,2,4]triazolo[1,5-a]pyrazin-2-yl]-amine] and `CC1(C)C(=O)Nc2cc(Nc3nc4c(-c5cnn(C(C)(C)C)c5)nccn4n3)ccc21` [E140, 6-[8-(1-tert-butyl-1H-pyrazol-4-yl)-[1,2,4]triazolo[1,5-a]pyrazin-2-ylamino]-3,3-dimethyl-1,3-dihydro-indol-2-one] cannot be ordered by pIC50: > 7.00 for the first, > 7.00 for the second.

`CC1(C)NC(=O)Nc2cc(Nc3nc4c(N5CCC6(CC5)CNC(=O)O6)nccn4n3)ccc21` [E45, 4,4-dimethyl-7-[8-(2-oxo-1-oxa-3,8-diaza-spiro[4.5]dec-8-yl)-[1,2,4]triazolo[1,5-a]pyrazin-2-ylamino]-3,4-dihydro-1H-quinazolin-2-one] and `CC1(C)C(=O)Nc2cc(Nc3nc4c(N5CCC6(CNC(=O)O6)C5)nccn4n3)ccc21` (stereo not shown) [E112, 3,3-dimethyl-6-[8-(2-oxo-1-oxa-3,7-diaza-spiro[4.4]non-7-yl)-[1,2,4]triazolo[1,5-a]pyrazin-2-ylamino]-1,3-dihydro-indol-2-one] cannot be ordered by pIC50: > 7.00 for the first, > 7.00 for the second.

`CC1(C)CCOc2cc(Nc3nc4c(N5CCC6(CC5)CNC(=O)O6)nccn4n3)ccc21` [E55, 8-[2-(4,4-dimethyl-chroman-7-ylamino)-[1,2,4]triazolo[1,5-a]pyrazin-8-yl]-1-oxa-3,8-diaza-spiro[4.5]decan-2-one] and `CCC1(O)CCN(c2nccn3nc(Nc4ccc5c(c4)NC(=O)C5(C)C)nc23)CC1` [E44, 6-[8-(4-ethyl-4-hydroxy-piperidin-1-yl)-[1,2,4]triazolo[1,5-a]pyrazin-2-ylamino]-3,3-dimethyl-1,3-dihydro-indol-2-one] cannot be ordered by pIC50: > 7.00 for the first, > 7.00 for the second.

`CC1(C)C(=O)Nc2cc(Nc3nc4c(N5CCC6(CC5)NC(=O)NC6=O)nccn4n3)ccc21` [E28, 8-[2-(3,3-dimethyl-2-oxo-2,3-dihydro-1H-indol-6-ylamino)-[1,2,4]triazolo[1,5-a]pyrazin-8-yl]-1,3,8-triaza-spiro[4.5]decane-2,4-dione] and `CC1(C)C(=O)Nc2cc(Nc3nc4c(N5CCCC5)nccn4n3)ccc21` [E41, 3,3-dimethyl-6-(8-pyrrolidin-1-yl-[1,2,4]triazolo[1,5-a]pyrazin-2-ylamino)-1,3-dihydro-indol-2-one] cannot be ordered by pIC50: > 7.00 for the first, > 7.00 for the second.

`CC1(C)C(=O)Nc2cc(Nc3nc4c(-c5cnoc5)nccn4n3)ccc21` [E149, 6-(8-isoxazol-4-yl-[1,2,4]triazolo[1,5-a]pyrazin-2-ylamino)-3,3-dimethyl-1,3-dihydro-indol-2-one] and `CN1CCOc2cc(-c3nccn4nc(Nc5ccc6c(c5)NC(=O)C6(C)C)nc34)cnc21` [E144, 3,3-dimethyl-6-[8-(4-methyl-3,4-dihydro-2H-pyrido[3,2-b][1,4]oxazin-7-yl)-[1,2,4]triazolo[1,5-a]pyrazin-2-ylamino]-1,3-dihydro-indol-2-one] cannot be ordered by pIC50: > 7.00 for the first, > 7.00 for the second.

Compared with `CS(=O)(=O)Nc1ccc(-c2nccn3nc(Nc4ccc(N5CCOCC5)cc4)nc23)cc1` [C42, N-{4-[2-(4-morpholin-4-yl-phenylamino)-[1,2,4]triazolo[1,5-a]pyrazin-8-yl]-phenyl}-methanesulfonamide], `CC1(C)C(=O)Nc2cc(Nc3nc4c(-c5ccc6c(c5)OCCO6)nccn4n3)ccc21` [E142, 6-[8-(2,3-dihydro-benzo[1,4]dioxin-6-yl)-[1,2,4]triazolo[1,5-a]pyrazin-2-ylamino]-3,3-dimethyl-1,3-dihydro-indol-2-one] is higher in pIC50: 5.52 to 6.52 for the first, > 7.00 for the second.

First: CC1(C)C(=O)Nc2cc(Nc3nc4c(N5C[C@H](CO)C[C@H]5c5ccccc5)nccn4n3)ccc21 (single isomer, unassigned) [E98, 6-[8-((trans2)-4-hydroxymethyl-2-phenyl-pyrrolidin-1-yl)-[1,2,4]triazolo[1,5-a]pyrazin-2-ylamino]-3,3-dimethyl-1,3-dihydro-indol-2-one]
Second: CC1(C)C(=O)Nc2cc(Nc3nc4c(N5C[C@@H](CO)C[C@@H]5c5ccccc5)nccn4n3)ccc21 (single isomer, unassigned) [E97, 6-[8-((trans1)-4-hydroxymethyl-2-phenyl-pyrrolidin-1-yl)-[1,2,4]triazolo[1,5-a]pyrazin-2-ylamino]-3,3-dimethyl-1,3-dihydro-indol-2-one]
The pIC50 of the first is higher: 6.52 to 7.00 for the first, 5.52 to 6.52 for the second.

First: CC1(C)C(=O)Nc2cc(Nc3nc4c(O[C@@H]5CN[C@@H](c6ccccc6C(F)(F)F)C5)nccn4n3)ccc21 [E82, 3,3-dimethyl-6-{8-[(3S,5R)-5-(2-trifluoroinethyl-phenyl)-pyrrolidin-3-yloxy]-[1,2,4]triazolo[1,5-a]pyrazin-2-ylamino}-1,3-dihydro-indol-2-one]
Second: CC1(C)C(=O)Nc2cc(Nc3nc4c(N5CCc6ccccc65)nccn4n3)ccc21 [E73, 6-[8-(2,3-dihydro-indol-1-yl)-[1,2,4]triazolo[1,5-a]pyrazin-2-ylamino]-3,3-dimethyl-1,3-dihydro-indol-2-one]
The pIC50 of the first is lower: 4.30 to 5.52 for the first, > 7.00 for the second.

First: CC1(C)C(=O)Nc2cc(Nc3nc4c(N5C[C@@H](O)C[C@H]5c5ccccc5)nccn4n3)ccc21 [E29, 6-[8-((2S,4S)-4-hydroxy-2-phenyl-pyrrolidin-1-yl)-[1,2,4]triazolo[1,5-a]pyrazin-2-ylamino]-3,3-dimethyl-1,3-dihydro-indol-2-one]
Second: CC1(C)C(=O)Nc2cc(Nc3nc4c(N5C[C@H](O)C[C@@H]5c5ccccc5)nccn4n3)ccc21 [E6, 6-[8-(4(2R,4R)-4-hydroxy-2-phenyl-pyrrolidin-1-yl)-[1,2,4]triazolo[1,5-a]pyrazin-2-ylamino]-3,3-dimethyl-1,3-dihydro-indol-2-one]
The pIC50 of the first is lower: 4.30 to 5.52 for the first, 6.52 to 7.00 for the second. The second is the more potent here.

`CC1(C)OC(C(F)(F)F)Nc2cc(Nc3nc4c(N5CCCCCC5)nccn4n3)ccc21` (stereo not shown) [E126, (8-azepan-1-yl-[1,2,4]triazolo[1,5-a]pyrazin-2-yl)-(4,4-dimethyl-2-trifluoromethyl-1,4-dihydro-2H-benzo[d][1,3]oxazin-7-yl)-amine] and `CC1(C)C(=O)Nc2cc(Nc3nc4c(N5CCCCC5)nccn4n3)ccc21` [E69, 3,3-dimethyl-6-(8-piperidin-1-yl-[1,2,4]triazolo[1,5-a]pyrazin-2-ylamino)-1,3-dihydro-indol-2-one] cannot be ordered by pIC50: > 7.00 for the first, > 7.00 for the second.

Compared with `CN(c1cccc(C(N)=O)c1)c1nccn2nc(Nc3ccc4c(c3)NC(=O)C4(C)C)nc12` [E151, 3-{[2-(3,3-dimethyl-2-oxo-2,3-dihydro-1H-indol-6-ylamino)-[1,2,4]triazolo[1,5-a]pyrazin-8-yl]-methyl-amino}-benzamide], `CC1(C)C(=O)Nc2cc(Nc3nc4c(N5CCCC(C(N)=O)C5)nccn4n3)ccc21` (stereo not shown) [E113, 1-[2-(3,3-dimethyl-2-oxo-2,3-dihydro-1H-indol-6-ylamino)-[1,2,4]triazolo[1,5-a]pyrazin-8-yl]-piperidine-3-carboxylic acid amide] is higher in pIC50: 5.52 to 6.52 for the first, > 7.00 for the second.

`CC1(C)C(=O)Nc2cc(Nc3nc4c(N5CCc6nc(O)nc(O)c6C5)nccn4n3)ccc21` [E1, 6-[8-(2,4-dihydroxy-7,8-dihydro-5H-pyrido[4,3-d]pyrimidin-6-yl)-[1,2,4]triazolo[1,5-a]pyrazin-2-ylamino]-3,3-dimethyl-1,3-dihydro-indol-2-one] and `CC1(C)C(=O)Nc2cc(Nc3nc4c(N5CCc6ccc(C#N)cc6C5)nccn4n3)ccc21` [E124, 2-[2-(3,3-dimethyl-2-oxo-2,3-dihydro-1H-indol-6-ylamino)-[1,2,4]triazolo[1,5-a]pyrazin-8-yl]-1,2,3,4-tetrahydro-isoquinoline-7-carbonitrile] cannot be ordered by pIC50: > 7.00 for the first, > 7.00 for the second.

`COc1cc(Nc2nc3c(N4CCCC(C(N)=O)C4)nccn3n2)cc(OC)c1` (stereo not shown) [D2, 1-[2-(3,5-dimethoxy-phenylamino)-[1,2,4]triazolo[1,5-a]pyrazin-8-yl]-piperidine-3-carboxylic acid amide] showed a pIC50 of 5.52 to 6.52.
